In PMC8151276, “An Integrated Approach toward NanoBRET Tracers for Analysis of GPCR Ligand Engagement” (Molecules, 2021):

Target: T1, DRD4 (Homo sapiens, UniProt P21917)
T1 construct: purchased Promega (in-house HiBiT-GPCR construct library, NanoBRET)
T1 sequence (P21917 1-419): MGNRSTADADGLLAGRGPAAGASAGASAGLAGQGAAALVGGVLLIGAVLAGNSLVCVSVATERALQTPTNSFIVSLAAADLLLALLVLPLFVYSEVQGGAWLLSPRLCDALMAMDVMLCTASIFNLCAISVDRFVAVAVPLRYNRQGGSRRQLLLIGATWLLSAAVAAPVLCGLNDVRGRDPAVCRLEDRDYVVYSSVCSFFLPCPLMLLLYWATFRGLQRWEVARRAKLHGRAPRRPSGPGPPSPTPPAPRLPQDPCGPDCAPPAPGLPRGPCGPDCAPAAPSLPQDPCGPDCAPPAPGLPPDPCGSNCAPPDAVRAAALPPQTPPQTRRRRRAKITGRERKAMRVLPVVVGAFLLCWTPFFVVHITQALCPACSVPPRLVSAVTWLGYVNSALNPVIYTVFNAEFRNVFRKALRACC
Experiment: NanoBRET screen HiBiT-DRD4 in HEK293
Assay type: binding
Description: Each tracer candidate was screened across the entire library of HiBiT-GPCR constructs using NanoBRET as the detection modality. As depicted in Figure 4A, the specificity of interactions was evaluated through decrease in BRET due to competitive displacement of a bound tracer by excess parental compound. Each tracer was analyzed for binding to each HiBiT-GPCR fusion in the absence and in the presence of competing parental compound. Briefly, HEK293 cells were transfected with HiBiT-GPCR constructs diluted into promoterless DNA to reduce expression and maximize translocation to the cell surface. Each tracer candidate was then screened at concentrations of 1 μM and 0.1 μM across cells expressing these fusions. Cells were treated for 1.5 h with tracer either alone or in the presence of 20 μM competing parental compound (i.e., control). BRET was measured upon addition of purified LgBiT and subsequent complementation with HiBiT genetically fused to a GPCR. The specificity of interactions was assessed through a decrease in BRET signal due to competitive displacement of the bound tracer. To further gauge the robustness of these interactions, the fold response over the control (i.e., BRETtracer/BRETcontrol) was calculated. We chose a 1.5-fold response, which translates to ≥7-fold signal over noise as the minimal threshold required to score an interaction as positive.
HiBiT-GPCR DNA constructs were diluted in 10 mM Tris pH 8 to a final concentration of 0.01 μg/μL, arrayed in 96-well plates and stored at −20 °C. For transfection, HEK293 cells were suspended in Opti-MEM (without phenol red) supplemented with 2% fetal bovine serum (Seradigm) and 100 units/mL penicillin–streptomycin (Gibco) at a final concentration of 220,000 cells/mL and dispensed into white 96-well plates at 90 μL/well. Subsequent transfections and screens were carried using an Agilent Bravo Automated Liquid Handling Platform. First, the 96-well HiBiT DNA arrays were diluted 25-fold in Opti-MEM (without serum or phenol red) to a final concentration of 0.0004 μg/μL and 20 μL of the diluted DNAs were transferred into new 96-well plates. Next, promoterless carrier DNA (1 μg/μL) was diluted 25-fold (0.04 μg/μL) and then dispensed into the diluted arrays at 20 μL/well. Following brief mixing, Viafect transfection reagent (Promega) diluted 16-fold into Opti-MEM was dispensed into the plates at 40 μL/well. After mixing by pipetting, plates were incubated for 10 min on the pipetting station deck. The DNA-transfection reagent complexes were then added to plates containing cells. To facilitate the screen, 10 μL of DNA-transfection reagent complexes were added in duplicates to the top 4 and bottom 4 rows, resulting in two identical 48-well arrays per plate. Plates with transfected cells were incubated for 18–20 h at 37 °C/5% CO2. A screen of each tracer across the entire library using two different concentrations requires duplicate plates of transfected cells. Depending on the number of tracers being screened, transfections can be scaled up using the same ratios. The next day, for each tracer, four 20× screening solutions in tracer dilution buffer (Promega) were prepared: two duplicates at final concentration of 20 μM and two duplicates at a final concentration of 2 μM. […] The four resulting solutions were diluted 4-fold in Opti-MEM without serum or phenol red to generate 5× solutions (5 µM and 0.5 µM tracer +/− 100 μM competing compound). To screen the library, a BioTek MultiFlo FX liquid dispenser was used to dispense 22.5 µL of tracer solution to the top 4 rows and 22.5 µL tracer + competing compound solution to the 4 bottom rows. Plates were briefly mixed on an orbital shaker and incubated for 1.5 h at room temperature. […] Plates were briefly mixed on an orbital shaker and incubated for 15 min to allow complementation.

Row | SMILES | NanoBRET Fold Response (DRD4, tracer 0.1μM) | NanoBRET Fold Response (DRD4, tracer 1μM) | other results
1 | O=C(CCc1ccc2n1[B-](F)(F)[N+]1=C(c3ccc[nH]3)C=CC1=C2)NCc1ccc(C(=O)NCCOCCC(=O)N[C@@H]2CC[C@@]3(O)[C@H]4Cc5ccc(O)c6c5[C@@]3(CCN4CC3CC3)[C@H]2O6)cc1 [Naltrexone-3-NB590] | 0.82 | 1.11 | 
2 | CCCn1c(=O)c2[nH]c(-c3ccc(OCC(=O)NCCNC(=O)CCOCCNC(=O)c4ccc(CNC(=O)CCc5ccc6n5[B-](F)(F)[N+]5=C(c7ccc[nH]7)C=CC5=C6)cc4)cc3)nc2n(CCC)c1=O [XAC-3-NB590] | 1.27 | 0.82 | 
3 | CC(C)N(CC[C@H](c1ccccc1)c1cc(CCNC(=O)c2ccc(CNC(=O)CCc3ccc4n3[B-](F)(F)[N+]3=C(c5ccc[nH]5)C=CC3=C4)cc2)ccc1O)C(C)C [Tolterodine-BZ-NB590] | 0.94 | 1.09 | 
4 | N#CN/C(=N\CCNC(=O)c1ccc(N)cc1)NCCCOc1cccc(CN2CCCCC2)c1 [Aminopotentidine (unmodified)] |  |  | NanoBRET Fold Response (DRD4, other tracers/Aminopotentidine (unmodified), 0.1μM): 1.24; NanoBRET Fold Response (DRD4, other tracers/Aminopotentidine (unmodified), 1μM): 1.17
5 | COc1ccc2[nH]c(-c3ccc(CNC(=O)CCOCCOCCOCCOCCNC(=O)CCc4ccc5n4[B-](F)(F)[N+]4=C(c6ccc[nH]6)C=CC4=C5)cc3)c(CCNC(C)=O)c2n1 [AzomelatoninICO9-2-NB590] |  |  | NanoBRET Fold Response (0.1μM tracer): 0.59; NanoBRET Fold Response (1μM tracer): 0.88
6 | COc1ccccc1N1CCN(CCCCN2C(=O)c3ccc(CNC(=O)CCOCCNC(=O)c4ccc(CNC(=O)CCc5ccc6n5[B-](F)(F)[N+]5=C(c7ccc[nH]7)C=CC5=C6)cc4)cc3C2=O)CC1 [NAN-190-3-NB590] | 1.23 | 1.92 | 
7 | Cc1nc2n(c(=O)c1CCN1CCC(c3noc4cc(F)ccc34)CC1)CCCC2OC(=O)NCCOCCOCCOCCOCCNC(=O)CCc1ccc2n1[B-](F)(F)[N+]1=C(c3ccc[nH]3)C=CC1=C2 (centres unmarked) [Risperidone-2-NB590] | 1.55 | 3.40 | 
8 | O=C(CCOCCOCCOCCOCCNC(=O)CCc1ccc2n1[B-](F)(F)[N+]1=C(c3ccc[nH]3)C=CC1=C2)NCCCN1CCN(C2=Nc3ccccc3Oc3ccc(Cl)cc32)CC1 [Loxapine-a-2-NB590] | 1.57 | 2.56 | 
9 | COc1ccccc1N1CCN(CCCCN2C(=O)c3ccc(CNC(=O)CCOCCOCCOCCOCCNC(=O)CCc4ccc5n4[B-](F)(F)[N+]4=C(c6ccc[nH]6)C=CC4=C5)cc3C2=O)CC1 [NAN-190-2-NB590] | 1.09 | 1.80 | 
10 | CC(C)N(CC[C@H](c1ccccc1)c1cc(CCNC(=O)CCOCCOCCOCCOCCNC(=O)CCc2ccc3n2[B-](F)(F)[N+]2=C(c4ccc[nH]4)C=CC2=C3)ccc1O)C(C)C [Tolterodine-2-NB590] | 0.99 | 0.96 | 
11 | N#CN=C(NCCCOc1cccc(CN2CCCCC2)c1)NCCNC(=O)CCOCCOCCOCCOCCNC(=O)CCc1ccc2n1[B-](F)(F)[N+]1=C(c3ccc[nH]3)C=CC1=C2 [Aminopotentidine-2-NB590] | 1.00 | 0.98 | 
12 | CCOC(=O)c1cc(C#N)c(N2CCC(C(=O)NS(=O)(=O)Cc3ccccc3/C=C/C(=O)NCCNC(=O)CCc3ccc4n3[B-](F)(F)[N+]3=C(c5ccc[nH]5)C=CC3=C4)CC2)nc1C [AZD1283-1-NB590] |  |  | NanoBRET Fold Response (DRD4, 0.1μM): 1.05; NanoBRET Fold Response (DRD4, 1μM): 1.13
13 | CN(C)CCC=C1c2ccccc2CCc2ccc(C(=O)NCCNC(=O)CCOCCOCCOCCOCCNC(=O)CCc3ccc4n3[B-](F)(F)[N+]3=C(c5ccc[nH]5)C=CC3=C4)cc21 [Amitriptyline-b-2-NB590] |  |  | NanoBRET Fold Response (tracer at 0.1μM, listed as amitriptyline-b-2-NB590): 1.05
14 | CN(C)CCC=C1c2ccccc2CCc2ccc(C(=O)NCCNC(=O)CCOCCOCCOCCOCCNC(=O)CCc3ccc4n3[B-](F)(F)[N+]3=C(c5ccc[nH]5)C=CC3=C4)cc21 [Amitriptyline-a-2-NB590] |  |  | NanoBRET Fold Response (tracer at 0.1μM): 1.07; NanoBRET Fold Response (tracer at 1μM): 1.09
15 | O=C(CCc1ccc2n1[B-](F)(F)[N+]1=C(c3ccc[nH]3)C=CC1=C2)NCCOCCOCCNC(=O)OCCOCCN1CCN(C2=Nc3ccccc3Sc3ccccc32)CC1 [Quetiapine-a-2-NB590] | 1.05 | 1.49 | 
16 | Cc1cc2c(s1)Nc1ccccc1N=C2N1CCN(CCCNC(=O)CCOCCOCCOCCOCCNC(=O)CCc2ccc3n2[B-](F)(F)[N+]2=C(c4ccc[nH]4)C=CC2=C3)CC1 [Olanzapine-a-2-NB590] | 1.68 | 2.27 | 
17 | COc1ccc2c(n1)c(CCNC(C)=O)cn2CCNC(=O)CCc1ccc2n1[B-](F)(F)[N+]1=C(c3ccc[nH]3)C=CC1=C2 [Azamelatonin-1-NB590] |  |  | NanoBRET Fold Response (0.1μM tracer): 0.77; NanoBRET Fold Response (1μM tracer): 1.03
18 | CN(CCC=C1c2ccccc2CCc2ccccc21)C(=O)CCOCCOCCOCCOCCNC(=O)CCc1ccc2n1[B-](F)(F)[N+]1=C(c3ccc[nH]3)C=CC1=C2 [Amitriptyline-e-2-NB590] |  |  | NanoBRET Fold Response (tracer at 1μM): 1.01
19 | O=C(CCc1ccc2n1[B-](F)(F)[N+]1=C(c3ccc[nH]3)C=CC1=C2)NCc1ccc(C(=O)NCCOCCOCCNCC(O)COc2cccc3ccccc23)cc1 (centres unmarked) [Propranolol-3-NB590] |  |  | NanoBRET Fold Response (DRD4, 0.1μM): 0.84; NanoBRET Fold Response (DRD4, 1μM): 0.99
20 | O=C(CCOCCOCCOCCOCCNC(=O)CCc1ccc2n1[B-](F)(F)[N+]1=C(c3ccc[nH]3)C=CC1=C2)NCCCN1CCN(C2=Nc3cc(Cl)ccc3Nc3ccccc32)CC1 [Clozapine-a-2-NB590] |  |  | NanoBRET Fold Response (DRD4, 0.1μM tracer): 3.46; NanoBRET Fold Response (DRD4, 1μM tracer): 3.88
